Test results as given in patent publication US8623830B2, “Compositions containing α-1-antitrypsin and methods for use” (Beth Israel Deaconess Medical Center, Inc., priority 2006, dated 2014).

Key:
[1] = subcutaneous injection of 25 mg twice a week; average; cited from earlier work
[2] = tested on: 1-AZT, a misfolded but functionally active mutant of α1-antitrypsin; settings: model cell culture system; cited from earlier work
[3] = tested on: new onset diabetic NOD mice; assay: Treatment of new onset diabetic NOD mice, blood glucose monitoring (normoglycemia); type: in vivo, mouse
Text: Female NOD (NOD/LtJx) mice and NOD.SCID (NOD.CB17-Prkdc^scid/J) were purchased from Jackson Laboratories (Bar Harbor, Me.) at 4 weeks of age and maintained under pathogen-free conditions in a conventional animal facility at Massachusetts General Hospital (Boston, Mass.). All animal studies were approved by our institutional review boards. The blood glucose levels of NOD mice were monitored weekly with the ACCU-CHECK® blood glucose monitor system (Roche, Indianapolis, Ind.). […] For syngeneic islet transplant recipients, blood glucose levels were checked at the time of transplantation, then daily for the first two weeks, and then 2 to 3 times per week afterward.
ARALAST™ (α1-proteinase inhibitor, human) is a major serum serine-protease inhibitor that inhibits the enzymatic activity of neutrophil elastase, cathespin G, proteinase 3, thrombin, trypsin, and chymotrypsin. ARALAST™ was purchased from Baxter (Westlake Village, Calif.) and was given at a dose of 2 mg i.p. every 3 days, for a total of 5 injections.

insulin receptor (IR) = assay: In vivo insulin signaling in skeletal muscle, immunoblotting of IR phosphorylation; design: species or system mouse; settings: skeletal muscle of new onset diabetic NOD mice, FIG. 1
Description: (§1) FIG. 1 is a pair of bar graphs representing the results obtained from studies of insulin signaling in skeletal muscle. The upper graph charts insulin receptor (IR) phosphorylation and the lower graph charts insulin receptor substrate-1 (IRS-1) phosphorylation in control, diabetic, and treated animals.
(§2) In vivo insulin signaling experiments were performed on mice after a 16 hour fast. Mice were injected i.p. with 20 U/kg BW of human insulin (Eli Lilly) or saline. Skeletal muscle (gastronemius) was dissected and frozen in liquid nitrogen for immunoblotting analysis of insulin signaling proteins.
(§3) Skeletal muscle (gastronemius), obtained in the context of our in vivo insulin signaling studies, was homogenized in a modified radioimmunoprecipitation assay (RIPA) buffer containing 50 mM Tris-HCl, 1 mM EDTA, 1% NP-40, 0.25% sodium deoxycholate, 150 mM NaCl, 1 mM PMSF, 200 μM […], supplemented with 1% protease inhibitor cocktail (Sigma), and 1% tyrosine phosphatase inhibitor cocktail (Sigma). Cell homogenates were incubated on ice for 45 minutes to solubilize all proteins, and insoluble portions were removed by centrifugation at 14,000 g at 4° C. for 15 minutes. Whole cell lysates were separated by SDS-polyacrylamide gel electrophoresis (PAGE). […] The blots were quantified using densitometry (Molecular Dynamics, Sunnvale, Calif.).

[4] = tested on: insulin receptor substrate-1 (IRS-1); assay: In vivo insulin signaling in skeletal muscle, immunoblotting of IRS-1 phosphorylation; design: species or system mouse; settings: skeletal muscle of new onset diabetic NOD mice, FIG. 1
Description: as §1, §2, §3

[5] = cited from earlier work

Etanercept
Time to peak blood levels [1]: 72 h

O=C(O)CCCc1ccccc1 [PBA, 4-phenylbutyric acid]
Secretion of 1-AZT [2]: marked increase

Aralast ™: α1-proteinase inhibitor, human; major serum serine-protease inhibitor, purchased from Baxter
Days after treatment (how long the animals have been normoglycemic) ([3]; animals still alive at writing): 90 to 300 days
Tyrosyl-phosphorylation of insulin receptor (IR) (insulin receptor (IR)): restored
Phosphorylation of insulin receptor substrate-1 (IRS-1) [4]: restored

AAT: α1-antitrypsin, plasma serine protease inhibitor (serpin)
Effect of a short course on glycemia [3]: restores normoglycemia
Half life in plasma [5]: approximately six
